How the values were obtained:
Tet^R E. coli = assay: Recovery of tetracycline activity (co-administration, MIC of tetracycline); format: cell-based, Escherichia coli
Experimental: MIC experiments were performed as described in the Clinical and Laboratory Standards Institute (CLSI) standard microdilution protocols. Bacteria was grown overnight from one CFU in media without antibiotics. Tet^R E. coli was grown in media containing 100 μg/mL Ampicillin. On the day of experiment, bacteria were knocked back to O.D. 600 nm=0.550 in the same media. These exponential phase bacteria were then diluted in antibiotics-free media to get […]. In a 96-well plate either L. B. Miller or MHII media was added followed by serially diluted compounds 1-11, tetracycline, or ampicillin. All the tryptophan based compounds were dissolved in DMSO and the final concentration of DMSO in each well was kept constant at 0.5% (v/v).
For the combination experiments, first, the BT or control was added to the media in the well followed by the antibiotics. The contents of the well were mixed before adding 20 μL of bacteria to get 4×10^5 CFU/mL per well. The plates were incubated at 37° C., 200 RPM for 24 hours before collecting results on the Biotek Cytation 3 plate reader. No more than three plates were stacked on top of each other at a time. Optical density of the wells was determined at λ=600 nm. Cells alone were considered as 0% inhibition and media alone was considered as 100% inhibition. Any inhibition greater than 80% was considered as the MIC. The results were reproduced three times before reporting.
First, MICs were determined for compounds 2, 3, 5, 6, 7, and 10 against Tet^R E. coli. Compounds 6 (para-Ph) and 7 (n-C3) were also included as controls. The MICs against Tet^R E. coli were refined compared to the power series and are reported as a range in Table 1 above. The MICs of tetracycline and ampicillin against Tet^R E. coli were 900±100 μM and >1000 μM, respectively. For comparison, the MIC for tetracycline against non-resistant E. coli K-12 is ˜3 μM. Ampicillin was used to maintain selective pressure for the expression of pBR322 plasmid. Ampicillin was omitted from experiments that contained tetracycline. Next, the MIC of tetracycline was determined when co-administered with 2, 3, 5, 6, 7, or 10. The results are represented as the MIC of tetracycline in the presence of the indicated BTs. The fold-recovery was determined by dividing the MIC of tetracycline when used alone by the MIC of tetracycline determined in the presence of the compounds.
The fractional inhibitory concentration (FIC) is often used as a measure of synergism or antagonism in comparing two or more compounds (Berenbaum, Pharmacol. Rev. 1989, 41, 93-141). The FIC is the sum of the fraction of the MIC for each compound used. Synergy is defined broadly as FIC<1, or more conservatively as FIC≤0.5. Under the broad definition, all compounds tested can be said to have at least moderate synergy with tetracycline. All arene-based compounds fit the more conservative definition of synergy with FIC values of 0.5 or less at the tested concentrations.

HEK-293 cells = assay: Cytotoxicity to mammalian cells, XTT assay; format: cell-based, human; conditions: 24 h; for survival of HEK-293 (in words): two-fold increase over MIC concentration; for cytotoxicity to HEK-293 (in words): at MIC against Tet^R E. coli (2: 48, 7: 128, 10: 10 μM)
Experimental: (§1) It was initially hypothesized that antimicrobial activity resulted from membrane disruption. Membrane active compounds are often cytotoxic to mammalian cells (Shai, Biopolymers 2002, 66, 236-48; Shai, et al., Curr. Protein Pept. Sci. 2006, 7, 479-86). The survival of three mammalian epithelial cell lines was assayed for 2, 3, 5, and 10. […] The cell lines studied were human embryonic kidney (HEK-293), human cervix epithelial (HeLa, ATCC Accession No. CCL-2), and Cercopithecus aethiops kidney (Cos-7, ATCC Accession No. CRL 1651). HeLa cells were acquired from ATCC. Cos-7 and HEK-293 cells were donated by colleagues. Cell lines were regularly maintained in growth media containing DMEM (ATCC), 10% fetal bovine serum (FBS, ATCC) and 1% penicillin-streptomycin solution (ATCC). Adherent HEK-293, HeLa and Cos-7 cells were trypsinized using 0.25% (w/v) trypsin-EDTA (Sigma-Aldrich), suspended in a fresh media and diluted to get a concentration of 3×10^5 cells/ml. Cells were seeded in a 96-well plate (100 μL/well) to get 3×10^4 cells/well. The plates were incubated for 24 hours at 5% CO2 and 37° C. to reach a confluency of 80-90%.
(§2) In a sterile 1.5 mL micro-centrifuge tube, compounds 2, 3, 5, 6, 7 and 10 (0.5% DMSO) were mixed with assay media (DMEM+10% FBS) and serially diluted by 2-fold each to get 2[MIC], [MIC], ½[MIC] and ¼ [MIC] concentrations. A control containing 0.5% DMSO was also prepared. After 24 hours, the spent media in the 96-well plate containing HEK-293, HeLa and Cos-7 cells (90% confluency) was replaced with 100 μL media containing the compounds 2, 3, 5, 6, 7 and 10 at various concentrations. The cells were incubated at 37° C. and 5% CO2 for 24 hours before performing XTT assay (Sigma-Aldrich). The XTT assay was performed according to the manufacturer's protocol. After 24 hours of treatment with compounds, the media was replaced with PBS and 25 μL XTT was added to each well. The XTT assay works by the reduction of tetrazolium compound by alive cells to the colored soluble formazan product. The absorbance of the product was measured at 450 nm (XTT) and 690 nm (background). Percent survival was calculated by comparing the average absorbance of cells treated with compounds 2, 3, 5, 6, 7, and 10 to that of cells alone. Two replicates for each treatment were determined. Average percent survival and standard deviation were calculated.
(§3) Cells were cultured for 24 h in 96-well plates and treated with media containing concentrations using [MIC] and [MIC]×2 determined previously for Tet^R E. coli. The number of surviving cells was determined using an XTT assay (Sigma-Aldrich); the results are represented as percent survival in FIG. 2. Cells alone were used as controls and established 100% survival. The data represent two replicates of three trials and the error bars represent the standard deviation.

HeLa cells = assay: Cytotoxicity to mammalian cells, XTT assay; format: cell-based, human; conditions: 24 h; for survival of HeLa (in words): two-fold increase over MIC concentration; for cytotoxicity to HeLa (in words): at MIC against Tet^R E. coli (2: 48, 7: 128, 10: 10 μM)
Experimental: as §1, §2, §3

[1] = compound at ¼ MIC (2: 12, 3: 7, 5: 14, 6: 30, 7: 30, 10: 2.5 μM)
[2] = compound at ¼ MIC (2: 12, 3: 7, 5: 14, 6: 30, 7: 30, 10: 2.5 μM), tetracycline alone 900 μM
[3] = compound at ½ MIC (2: 24, 3: 14, 5: 28, 6: 60, 7: 60, 10: 5 μM)
[4] = compound at ½ MIC (2: 24, 3: 14, 5: 28, 6: 60, 7: 60, 10: 5 μM), tetracycline alone 900 μM
[5] = at MIC against Tet^R E. coli (2: 48, 3: 28, 5: 56, 6: 120, 7: 128, 10: 10 μM)
[6] = compound at 5 μM (single comparison concentration)
[7] = compound at 14 μM (single comparison concentration)
[8] = at twice the MIC (FIG. 3 legend: 2: 96, 3: 56, 5: 112, 6: 240, 7: 256, 10: 20 μM)

For `Cl.Cl.N[C@@H](Cc1c[nH]c2ccccc12)C(=O)Nc1ccccc1NC(=O)[C@@H](N)Cc1c[nH]c2ccccc12` [Compound 5, (2S,2′S)-1,1′-(1,2-Phenylenebis(azanediyl))bis(3-(1H-indol-3-yl)-1-oxopropan-2-aminium) chloride], the “FIC (fractional inhibitory concentration) with tetracycline” value (Tet^R E. coli; [1]) was 0.50, the “MIC [Tet] (tetracycline in the presence of the compound)” value (from here on “MIC [Tet]”) (Tet^R E. coli; [1]) was 225 µM and the “Fold Recovery of tetracycline activity” value (Tet^R E. coli; [2]) was 4-fold. The “FIC (fractional inhibitory concentration) with tetracycline” value (Tet^R E. coli; [3]) was 0.63, the “MIC [Tet]” value (Tet^R E. coli; [3]) was 112.5 µM and the “Fold Recovery of tetracycline activity” value (Tet^R E. coli; [4]) was 8-fold. The “percent survival HEK-293” value (HEK-293 cells; [5]) was 100%, the “survival of HEK-293 (in words)” value (HEK-293 cells) was “unaffected” and the “percent survival HeLa” value (HeLa cells; [5]) was 100%. The “survival of HeLa (in words)” value (HeLa cells) was “unaffected” and the melting point was 201 °C (dec.).

In the case of `Cl.Cl.N[C@@H](Cc1c[nH]c2ccccc12)C(=O)NCCCNC(=O)[C@@H](N)Cc1c[nH]c2ccccc12` [Compound 7, (2S,2′S)-1,1′-(Propane-1,3-diylbis(azanediyl))bis(3-(1H-indol-3-yl)-1-oxopropan-2-aminium) chloride], the “FIC (fractional inhibitory concentration) with tetracycline” value (Tet^R E. coli; [6]) is reported as 0.54, the “Fold Recovery of tetracycline activity” value (Tet^R E. coli; [6]) is reported as 2-fold and the “MIC [Tet]” value (Tet^R E. coli; [6]) is reported as 450 µM. The “FIC (fractional inhibitory concentration) with tetracycline” value (Tet^R E. coli; [1]) was 0.38, the “MIC [Tet]” value (Tet^R E. coli; [1]) was 112.5 µM and the “Fold Recovery of tetracycline activity” value (Tet^R E. coli; [2]) was 8-fold. For the same compound, the “FIC (fractional inhibitory concentration) with tetracycline” value (Tet^R E. coli; [3]) was 0.63, the “MIC [Tet]” value (Tet^R E. coli; [3]) was 112.5 µM and the “Fold Recovery of tetracycline activity” value (Tet^R E. coli; [4]) was 8-fold. For the same compound, the “cytotoxicity to HEK-293 (in words)” value (HEK-293 cells) was “minimally toxic”, the “cytotoxicity to HeLa (in words)” value (HeLa cells) was “moderately toxic” and the melting point was 234 °C (dec.).

With `Cl.Cl.N[C@@H](Cc1c[nH]c2ccccc12)C(=O)Nc1cccc(NC(=O)[C@@H](N)Cc2c[nH]c3ccccc23)c1` [Compound 2, (2S,2′S)-1,1′-(1,3-Phenylenebis(azanediyl))bis(3-(1H-indol-3-yl)-1-oxopropan-2-aminium) chloride] the “FIC (fractional inhibitory concentration) with tetracycline” value (Tet^R E. coli; [7]) was 0.42, the “Fold Recovery of tetracycline activity” value (Tet^R E. coli; [7]) was 8-fold and the “MIC [Tet]” value (Tet^R E. coli; [7]) was 112.5 µM. For the same compound, the “FIC (fractional inhibitory concentration) with tetracycline” value (Tet^R E. coli; [1]) was 0.38, the “MIC [Tet]” value (Tet^R E. coli; [1]) was 112.5 µM and the “Fold Recovery of tetracycline activity” value (Tet^R E. coli; [2]) was 8-fold. The “FIC (fractional inhibitory concentration) with tetracycline” value (Tet^R E. coli; [3]) was 0.56, the “MIC [Tet]” value (Tet^R E. coli; [3]) was 56.25 µM and the “Fold Recovery of tetracycline activity” value (Tet^R E. coli; [4]) was 16-fold. For the same compound, the “percent survival HEK-293” value (HEK-293 cells; [5]) was 100%, the “cytotoxicity to HEK-293 (in words)” value (HEK-293 cells) was “no cytotoxicity” and the “survival of HEK-293 (in words)” value (HEK-293 cells) was “unaffected”. For the same compound, the “percent survival HeLa” value (HeLa cells; [5]) was 100%, the “cytotoxicity to HeLa (in words)” value (HeLa cells) was “no cytotoxicity” and the “survival of HeLa (in words)” value (HeLa cells) was “unaffected”. The melting point was 223 °C (dec.).

In the case of `Cl.Cl.N[C@H](Cc1c[nH]c2ccccc12)C(=O)NCCCCCCCCCCCCNC(=O)[C@@H](N)Cc1c[nH]c2ccccc12` [Compound 10, (S)-1-((12-((R)-2-Ammonio-3-(1H-indol-3-yl)propanamido)dodecyl)amino)-3-(1H-indol-3-yl)-1-oxopropan-2-aminium chloride], the “FIC (synergy with tetracycline)” value (Tet^R E. coli; at the tested concentrations, synergy FIC<1 (broad) or FIC≤0.5 (conservative)) is reported as at least 0.75, the “FIC (fractional inhibitory concentration) with tetracycline” value (Tet^R E. coli; [1]) is reported as 0.75 and the “MIC [Tet]” value (Tet^R E. coli; [1]) is reported as 450 µM. The “Fold Recovery of tetracycline activity” value (Tet^R E. coli; [2]) was 2-fold, the “FIC (fractional inhibitory concentration) with tetracycline” value (Tet^R E. coli; [3]) was 0.75 and the “MIC [Tet]” value (Tet^R E. coli; [3]) was 225 µM. The “Fold Recovery of tetracycline activity” value (Tet^R E. coli; [4]) was 4-fold, the “recovery of tetracycline activity” value (Tet^R E. coli; compound at ½ and ¼ of its MIC) was 2 to 4 fold and the “cytotoxicity to HEK-293 (in words)” value (HEK-293 cells) was “minimally toxic”. The “cytotoxicity to HeLa (in words)” value (HeLa cells) was “moderately toxic” and the melting point was 158 °C (dec.).

For `Cl.Cl.N[C@@H](Cc1c[nH]c2ccccc12)C(=O)Nc1ccc(NC(=O)[C@@H](N)Cc2c[nH]c3ccccc23)cc1` [Compound 6, (2S,2′S)-1,1′-(1,4-Phenylenebis(azanediyl))bis(3-(1H-indol-3-yl)-1-oxopropan-2-aminium) chloride], the “FIC (fractional inhibitory concentration) with tetracycline” value (Tet^R E. coli; [7]) was 0.62, the “Fold Recovery of tetracycline activity” value (Tet^R E. coli; [7]) was 2-fold and the “MIC [Tet]” value (Tet^R E. coli; [7]) was 450 µM. For the same compound, the “FIC (fractional inhibitory concentration) with tetracycline” value (Tet^R E. coli; [1]) was 0.50, the “MIC [Tet]” value (Tet^R E. coli; [1]) was 225 µM and the “Fold Recovery of tetracycline activity” value (Tet^R E. coli; [2]) was 4-fold. The “FIC (fractional inhibitory concentration) with tetracycline” value (Tet^R E. coli; [3]) was 0.63, the “MIC [Tet]” value (Tet^R E. coli; [3]) was 112.5 µM and the “Fold Recovery of tetracycline activity” value (Tet^R E. coli; [4]) was 8-fold. The “percent survival HEK-293” value (HEK-293 cells; [5]) was 100%, the “percent survival HEK-293” value (HEK-293 cells; [8]) was 61% and the “percent survival HeLa” value (HeLa cells; [5]) was 100%. The “percent survival HeLa” value (HeLa cells; [8]) was 29% and the melting point was 237 °C (dec.).
